Read-outs that look alike come from different tables or passages of the source. Each block holds one molecule with its values, some of them ahead of it.
What was measured:
[1] = Crystallinity / form change upon heating (XRPD); format: physicochemical
Text: For XRPD analysis, PANalytical X'Pert3 X-ray powder diffractometer was used.

[2] = Solid-state storage stability of free base Form I at 5, 40 and 60° C. (HPLC); format: physicochemical; details: for Area % of A / Purity vs. Initial %: HPLC
Description: Form I was stable in its solid state at 5° C. for 7 days, but degraded upon storage at 40° C. and 60° C.
In Table 1, “A” represents Compound A, and the data was obtained via HPLC.

[3] = Crystallinity before and after grinding (XRPD, FIG. 38); format: physicochemical; details: for crystallinity after grinding: grinding with a mortar and pestle for approximately 5 minutes, XRPD FIG. 38
Text: (§1) As shown by the top spectrum, the sharp peaks of the HCl salt of Compound A have flattened out compared to the bottom spectrum. […] The data provide in Table 4 further supports the conclusion that Form A maintains its crystallinity compared to the mesylate salt of Compound A.

[4] = HPLC purity before and after heating to 100° C. and 150° C.; format: physicochemical
Description: (§2) Form A retains its crystallinity to a temperature of about 150° C. […] In addition, Form A can be heated to at least to 100° C. that can allow for the removal of any trapped solvent without erosion of purity, which can be beneficial. The purity of initial Form A, Form A after being heated to 100° C., and Form A after being heated to 150° C. are shown.

[5] = Crystallinity during sample preparation (XRPD, FIG. 37); format: physicochemical
Text: FIG. 37 provides a representative XRPD pattern of a second HCl salt of Compound A (prior to sample preparation and after re-preparation of the sample).
as §1

[6] = test system: MCF7; test: Breast Cancer Cell Proliferation Assay (MCF-7); format: cell-based; details: 5 days of compound exposure, Cell Titer-Glo
Description: MCF7 was expanded and maintained in the medium (Phenol red free DMEM/F12 (Hyclone SH30272.01) NEAA (Gibco 11140-050) Na-pyruvate (Gibco 11360-070) and Re-stripped Charcoal stripped FBS (Gemini 100-119)). The cells were adjusted to a concentration of 3,000 cells per mL in the above media, and the cells were incubated (37° C., 5% CO2). The following day a 10 point, serial dilution of compounds was added to the cells at a final concentration ranging from 10-0.000005 μM for the test compounds (17β-estradiol was used as a control). Additional cells were plated in 30 wells to serve as the day 1 (pretreatment) comparison. After 5 days of compound exposure, Cell Titer-Glo reagent was added to the cells, and the relative luminescence units (RLUs) of each well was determined. Cell Titer-Glo was also added to 32 μL of medium without cells to obtain a background value. The plates were allowed to incubate at room temperature for 10 minutes to stabilize luminescent signal, and the luminescence signal was recorded with EnSpire. The relative increase in cell number of each sample is determined as follows: (RLU sample-RLU background/RLU estrogen only treated cells-RLU background)×100=% inhibition.

[7] = TGA of samples heated to 150° C. (FIG. 34); format: physicochemical
Description: FIG. 34 provides a TGA thermogram for (1) Form A for a sample heated to 150° C., and (2) a sample initially dried under vacuum for 3 hours at 40° C.
as §2
TGA data were collected using a TA Discovery 5500 TGA from TA Instruments. DSC was performed using a TA Discovery 2500 DSC from TA Instruments.

SMILES: CC1Cc2c([nH]c3ccccc23)C(c2c(F)cc(C=CC(=O)O)cc2F)N1C12CC(C1)C2 (centres unmarked) [Form I]
crystallinity upon heating ([1]; XRPD, FIG. 30 (initially, after 1, 3 and 7 days)): lose crystallinity
stability in solid state ([2]; 5° C. for 7 days): stable
Area % of A ([2]; 5° C., 1 Day): 98.24%
Purity vs. Initial % ([2]; 5° C., 1 Day): 99.8%
Area % of A ([2]; 5° C., 3 Days): 98.09%
Purity vs. Initial % ([2]; 5° C., 3 Days): 99.6%
Area % of A ([2]; 5° C., 7 Days): 98.14%
Purity vs. Initial % ([2]; 5° C., 7 Days): 99.7%
Area % of A ([2]; 40° C., 1 Day): 97.60%
Purity vs. Initial % ([2]; 40° C., 1 Day): 99.1%
Area % of A ([2]; 40° C., 3 Days): 96.79%
Purity vs. Initial % ([2]; 40° C., 3 Days): 98.3%
Area % of A ([2]; 40° C., 7 Days): 96.18%
Purity vs. Initial % ([2]; 40° C., 7 Days): 97.7%
Area % of A ([2]; 60° C., 1 Day): 93.42%
Purity vs. Initial % ([2]; 60° C., 1 Day): 94.9%
Area % of A ([2]; 60° C., 3 Days): 88.31%
Purity vs. Initial % ([2]; 60° C., 3 Days): 89.7%
Area % of A ([2]; 60° C., 7 Days): 80.95%
Purity vs. Initial % ([2]; 60° C., 7 Days): 82.2%
degradation ([2]; after 7 days at 40° C.): approximately 2%
degradation ([2]; after 7 days at 60° C.): approximately 18%

SMILES: CC1Cc2c([nH]c3ccccc23)C(c2c(F)cc(C=CC(=O)O)cc2F)N1C12CC(C1)C2.CS(=O)(=O)O (centres unmarked) [Mesylate salt of Compound A]
Form change ([1]; Heated to 100° C.): No
Form change ([1]; Heated to 150° C.): No
Crystallinity ([3]; After grinding for 5 mins.): Amorphous
Crystallinity ([3]; Initial): Crystalline
crystallinity after grinding [3]: loss of crystallinity
Purity (area %) ([4]; Heated to 100° C.): 98.4 area %
Purity (area %) ([4]; Heated to 150° C.): 97.1 area %
Purity (area %) ([4]; Initial): 98.4 area %

SMILES: CC1Cc2c([nH]c3ccccc23)C(c2c(F)cc(C=CC(=O)O)cc2F)N1C12CC(C1)C2.Cl (centres unmarked) [HCl salt of Compound A]
crystallinity during sample preparation [5]: variable crystallinity

IC50 ([6]; Homo sapiens, MCF7, 120 h): 400 pM
SMILES: C[C@@H]1Cc2c([nH]c3ccccc23)[C@@H](c2c(F)cc(/C=C/C(=O)O)cc2F)N1C12CC(C1)C2 [Free base of Compound A, (E)-3-(4-((1R,3R)-2-(Bicyclo[1.1.1]pentan-1-yl)-3-methyl-2,3,4,9-tetrahydro-1H-pyrido[3,4-b]indol-1-yl)-3,5-difluorophenyl)acrylic acid]

SMILES: CC1Cc2c([nH]c3ccccc23)C(c2c(F)cc(C=CC(=O)O)cc2F)N1C12CC(C1)C2.O=S(=O)(O)O (centres unmarked) [Form A]
Form change ([1]; Heated to 100° C.): No
Form change ([1]; Heated to 150° C.): No
temperature to which crystallinity is retained ([1]; XRPD, FIG. 31): about 150 °C
IC50 [6]: 200 pM
Crystallinity ([3]; After grinding for 5 mins.): Decreased crystallinity
Crystallinity ([3]; Initial): Crystalline
crystallinity after grinding [3]: maintain its crystallinity
HPLC peak No. 2, RRT 0.55 (degradation) ([4]; After heating to 100° C.): 0.67
HPLC peak No. 3, RRT 0.59 (degradation) ([4]; After heating to 100° C.): <0.05
HPLC peak No. 5, RRT 0.90 (degradation) ([4]; After heating to 100° C.): <0.05
HPLC peak No. 6, RRT 0.94 (degradation) ([4]; After heating to 100° C.): <0.05
HPLC peak No. 8, RRT 0.97 (degradation) ([4]; After heating to 100° C.): <0.05
HPLC peak No. 9, RRT 1.00 (Compound A), purity ([4]; After heating to 100° C.): 99.07
HPLC peak No. 2, RRT 0.55 (degradation) ([4]; After heating to 150° C.): 0.76
HPLC peak No. 3, RRT 0.59 (degradation) ([4]; After heating to 150° C.): 0.18
HPLC peak No. 5, RRT 0.90 (degradation) ([4]; After heating to 150° C.): 0.21
HPLC peak No. 6, RRT 0.94 (degradation) ([4]; After heating to 150° C.): 0.16
HPLC peak No. 8, RRT 0.97 (degradation) ([4]; After heating to 150° C.): 0.24
HPLC peak No. 9, RRT 1.00 (Compound A), purity ([4]; After heating to 150° C.): 97.98
heat-promoted degradation ([4]; HPLC, heated to 100° C. and 150° C.): resistant to heat-promoted degradation
Purity (area %) ([4]; Heated to 100° C.): 99.1 area %
Purity (area %) ([4]; Heated to 150° C.): 98.0 area %
Purity (area %) ([4]; Initial): 99.1 area %
HPLC peak No. 2, RRT 0.55 (degradation) ([4]; Initial (before heating)): 0.67
HPLC peak No. 3, RRT 0.59 (degradation) ([4]; Initial (before heating)): <0.05
HPLC peak No. 5, RRT 0.90 (degradation) ([4]; Initial (before heating)): <0.05
HPLC peak No. 6, RRT 0.94 (degradation) ([4]; Initial (before heating)): <0.05
HPLC peak No. 8, RRT 0.97 (degradation) ([4]; Initial (before heating)): <0.05
HPLC peak No. 9, RRT 1.00 (Compound A), purity ([4]; Initial (before heating)): 99.07
degradation (FIG. 34) ([7]; sample heated directly to 150 C): 4.47%
degradation (FIG. 34) ([7]; sample heated to a lower temperature (<100° C.) and then to 150° C.): 3.54%
stability after one week (25° C. and 60% relative humidity): stable
stability after one week (40° C. and 75% relatively humidity): stable

Reference: patent US20220389006A1, “SALTS AND FORMS OF AN ESTROGEN RECEPTOR MODULATOR” (Recurium IP Holdings, LLC, priority 2019, published 2022)
